The text below walks through data of patent publication US10667512B2, “Terpene-containing compositions and methods of making and using them” (Eden Research PLC, priority 2005, dated 2020).

Data set [1] deals with S. aureus. Put plainly: MIC of terpene emulsions and fresh or freeze-dried Baker's YP / SAF Mannan encapsulated terpenes. Type of data set: cell-based. The settings on record: for MIC, Bakers Freeze Dried / MIC, Bakers Fresh: encapsulated in Baker's YP; for MIC, SAF Mannan Freeze Dried / MIC, SAF Mannan Fresh: encapsulated in SAF Mannan; for MIC, Emulsion: terpene emulsion. How it is done:
The results of a protocol performed to compare the MIC of fresh versus freeze dried hollow glucan particle encapsulated terpene formulations are shown below in Table 13. A simple terpene emulsion was also tested and the results are shown for comparison.

The nature of data set [2]: Terpene loading into yeast particles, absence of free terpene after centrifugation. Type of data set: physicochemical. The settings on record: for terpene emulsion absorbed and encapsulated per 10 mg of YP: Baker's YP 20 mg/ml; for terpene emulsion absorbed and encapsulated per 125 mg of YP: Baker's YP 250 mg/ml; for Vol. loaded: 500 μl of 250 mg/ml; for % Loaded w/w: terpene to particle weight. How it is done: (§1) Samples were centrifuged at 14,000×g for 10 minutes and the appearance of free terpene floating on the aqueous layer was scored.
The expression “free terpene” refers to the visible presence of terpene in the centrifuged reaction mixture. The absence of free terpene indicates complete absorption of the terpene by the particles. The highest volume of terpene absorbed by the particles, as evidenced by the absence of free terpene, was recorded as the maximal volume of absorbed terpene emulsion.
as §1
The expression “free terpene” refers to the visible presence of terpene in the centrifuged reaction mixture. The absence of free terpene indicates complete absorption of the terpene by the YP. The highest volume of terpene absorbed by the YP, as evidenced by the absence of free terpene, was recorded as the maximal volume of absorbed terpene emulsion.
Increasing volumes of terpene emulsion were mixed with 250 mg/ml Baker's YP or 250 mg/ml SAF Mannan™ overnight at room temperature as shown in Tables 7 and 8. Samples were centrifuged at 14,000×g for 10 minutes and the appearance of free terpene floating on the aqueous layer was scored. The highest volume of terpene emulsion absorbed by Baker's YP or SAF Mannan™ as evidenced by the absence of free terpene was recorded as the volume of absorbed terpene emulsion. Colour of encapsulated terpenes in the pellet was recorded.
Percentage loaded represents a ratio of the amount of terpene loaded to the amount of particle present (weight for weight).

Data set [3] is classed as physicochemical. How it is done:
The reactions were incubated for 1, 3, 6, 9 and 24 hours at room temperature or 37° C. After incubation samples were centrifuged at 14,000×g for 10 minutes and the appearance of free terpene floating on the aqueous layer was scored. The highest volume of terpene absorbed by the particles as evidenced by the absence of free terpene was recorded as the volume of absorbed terpene emulsion. Colour of the encapsulated pellet was scored at 24 hours.

Data set [4] in a line: Citral solution and stable suspension. Type of data set: physicochemical. The source says:
In one embodiment the terpene component includes one or more terpenes which contain oxygen.

The subject of data set [5] is E. coli. The settings on record: cited from earlier work.
For data set [6], the system named is H. pylori. Conditions: in vitro; cited from earlier work.

Like-named read-outs stand apart in the source and are kept apart here.

Take `CC(C)=CCCC(C)=CC=O` [Citral, 3,7-dimethyl-2,6-octadien-1-al]: in data set [1], the “MIC, Bakers Freeze Dried” value worked out at 0.05 μg/ml terpene; the “MIC, Bakers Fresh” value was found to be 0.01 μg/ml terpene; the “MIC, SAF Mannan Freeze Dried” value was >0.03 μg/ml terpene; the “MIC, SAF Mannan Fresh” value is listed as 0.01 μg/ml terpene. Besides, in data set [1], the “MIC, Emulsion” value came to 0.94 μg/ml terpene. In data set [2], the “terpene emulsion absorbed and encapsulated per 10 mg of YP” value is on record as “at least 5 μl”; the “terpene emulsion absorbed and encapsulated per 125 mg of YP” value is on record as “at least 75 μl”. Further, in data set [2] (maximal loading in Baker's YP), the “Vol. loaded” value was 75 µL and the “% Loaded w/w” value is recorded as 67% w/w. In data set [2] (maximal loading in SAF Mannan), the Vol. loaded was determined as 150 µL and the “% Loaded w/w” value is 133% w/w. Further, in data set [3] (in Baker's YP), the “protection of citral from oxidation” value is recorded as “not by the Baker's YP”. In addition, the “protection of citral from oxidation” value in data set [3] (in SAF Mannan) was “protected from oxidation”. Besides, in data set [4], the “concentration up to which a solution can be made” value is on record as “up to 500 ppm” and the “concentration up to which a stable suspension can be formed” value is reported as “up to 2500 ppm”. In data set [5], the “concentration in growth media that reduced the concentration of E. coli” value was “more than 0.01%” and the “concentration with bactericidal effect” value is given as 0.08%.
As for `C=CCc1ccc(O)c(OC)c1` [Eugenol], in data set [1], the “MIC, Bakers Freeze Dried” value is 0.05 μg/ml terpene; the “MIC, Bakers Fresh” value was found to be 0.03 μg/ml terpene; the “MIC, SAF Mannan Freeze Dried” value was found to be 0.05 μg/ml terpene; the “MIC, SAF Mannan Fresh” value was 0.01 μg/ml terpene. In addition, the “MIC, Emulsion” value in data set [1] worked out at 0.12 μg/ml terpene. Moreover, in data set [2] (maximal loading in Baker's YP), the “Vol. loaded” value came out at 75 µL and the “% Loaded w/w” value is given as 67% w/w. In data set [2] (maximal loading in SAF Mannan), the Vol. loaded was 112.5 µL and the “% Loaded w/w” value amounted to 100% w/w.
Turning to `CC(C)=CCC/C(C)=C/CO` [Geraniol], in data set [1], the “MIC, Bakers Freeze Dried” value is recorded as 0.06 μg/ml terpene; the “MIC, Bakers Fresh” value was 0.03 μg/ml terpene; the “MIC, SAF Mannan Freeze Dried” value is reported as >0.03 μg/ml terpene; the “MIC, SAF Mannan Fresh” value is on record as 0.02 μg/ml terpene. The “MIC, Emulsion” value in data set [1] turned out to be 0.47 μg/ml terpene. In data set [2] (maximal loading in Baker's YP), the “Vol. loaded” value is 75 µL and the “% Loaded w/w” value came to 67% w/w. Further, in data set [2] (maximal loading in SAF Mannan), the Vol. loaded was 150 µL and the “% Loaded w/w” value was 133% w/w. The “concentration that inhibited the growth of H. pylori” value in data set [6] is reported as 2 mg/L.
Turning to L-carvone, in data set [1], the “MIC, Bakers Freeze Dried” value was >0.04 μg/ml terpene; the “MIC, Bakers Fresh” value worked out at 0.1 μg/ml terpene; the “MIC, SAF Mannan Freeze Dried” value was >0.02 μg/ml terpene; the “MIC, SAF Mannan Fresh” value is given as 0.01 μg/ml terpene. Also, the “MIC, Emulsion” value in data set [1] is 3.75 μg/ml terpene. In data set [2], the “terpene emulsion absorbed and encapsulated per 10 mg of YP” value was “at least 16.5 μl”; the “terpene emulsion absorbed and encapsulated per 125 mg of YP” value is “at least 112.5 μl”. For the same molecule, in data set [2] (maximal loading in Baker's YP), the “Vol. loaded” value was 37.5 µL and the “% Loaded w/w” value was 33.3 % w/w. In data set [2] (maximal loading in SAF Mannan), the Vol. loaded is 112.5 µL and the “% Loaded w/w” value amounted to 100% w/w.
